This is an account of results in patent US10028992B2, “Methods of treating muscular dystrophy” (BOARD OF REGENTS OF THE NEVADA SYSTEM OF HIGHER EDUCATION …, priority 2012, dated 2018).

The assay concerns α7 integrin promoter. Nature of the assay: muscle cell-based assay: α7βgal+/− myoblasts/myotubes, LacZ reporter, β-galactosidase cleavage of FDG. To be noted: Myoblasts. Details: species or system mouse; Results in α7+/− β-galactosidase assay: scale not given here. In short, it runs like this:
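Fluorescein generated from FDG by β-galactosidase reports α7 integrin promoter activity in differentiated myoblasts from α7+/− LacZ knock-in pups. Screening hits then went to dose-response, western blotting and a myostatin counterscreen.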

As to `CC(C)CN(C(=O)c1cccc(Cl)c1)c1c(N)n(Cc2ccccc2)c(=O)[nH]c1=O` [drawing 544], the “Results in α7+/− β-galactosidase assay” value is reported as 0.1169 (0.5 uM); 0.2337 (1 uM); 0.01239 (5 uM); −0.05318 (10 uM); −0.1028 (20 uM); −0.2221 (40 uM).
Turning to `Cc1nc(O)nc(O)c1S(=O)(=O)Nc1ccc(F)cc1Cl` [drawing 545], the “Results in α7+/− β-galactosidase assay” value was 0.03945 (0.5 uM); 0.1557 (1 uM); 0.0782 (5 uM); −0.00196 (10 uM); 0.02136 (20 uM); −0.01244 (40 uM).
With `Cc1nnc(-c2ccc(N3CCOCC3)c([N+](=O)[O-])c2)o1` [drawing 546], the “Results in α7+/− β-galactosidase assay” value by setting is: (0.5 uM) −0.06474; (1 uM) −0.06237; (5 uM) −0.05162; (10 uM) −0.06761; (20 uM) −0.1275; (40 uM) −0.08865.
Regarding `Cc1cc(C)cc(OCC(=O)N/N=C/c2ccccn2)c1` [drawing 547], the “Results in α7+/− β-galactosidase assay” value is listed as 0.02525 (0.5 uM); 0.04969 (1 uM); 0.0722 (5 uM); −0.00591 (10 uM); 0.8477 (20 uM); −0.1757 (40 uM).
For `O=C1Nc2ccccc2/C1=C/c1c[nH]c(-c2ccccc2)n1` [drawing 548], the “Results in α7+/− β-galactosidase assay” value runs as follows: (0.5 uM) 0.05646; (1 uM) 0.09843; (5 uM) 0.2266; (10 uM) 0.1719; (20 uM) 0.06424; (40 uM) 0.08092.
For the compound `O=C(c1ccccc1)N1CCN(S(=O)(=O)c2cccs2)CC1` [drawing 549], the “Results in α7+/− β-galactosidase assay” value is 0.05147 (0.5 uM); 0.1507 (1 uM); 0.1856 (5 uM); −0.01279 (10 uM); 0.05474 (20 uM); 0.09083 (40 uM).
With `COc1ccccc1C(=O)Nc1ccnn1C1CCN(C(=O)c2ccoc2)CC1` [drawing 551], the “Results in α7+/− β-galactosidase assay” value is on record as −0.09644 (0.5 uM); −0.04841 (1 uM); 0.05814 (5 uM); 0.02292 (10 uM); 0.01412 (20 uM); −0.05323 (40 uM).
Turning to `CCOC(=O)c1nnn(-c2nonc2OC)c1-c1ccccc1` [drawing 552], the “Results in α7+/− β-galactosidase assay” value reads like this: (0.5 uM) 0.01584; (1 uM) 0.107; (5 uM) 0.07484; (10 uM) −0.08302; (20 uM) 0.003125; (40 uM) −0.1081.
Regarding `CC(C)(C)Nc1nc(-c2ccc3c(c2)CCN3C(=O)C2CC2)cs1` [drawing 553], the “Results in α7+/− β-galactosidase assay” value runs as follows: (0.5 uM) 0.1228; (1 uM) 0.2827; (5 uM) 0.1111; (10 uM) −0.01717; (20 uM) −0.1366; (40 uM) −0.2135.
